In patent US9695155B2, “Herbicidal substituted pyrimidinyloxy benzene compounds” (E. I. DU PONT DE NEMOURS AND COMPANY, priority 2013, dated 2017):

Legend:
[1] = test system: Heteranthera limosa; assay: Test B flooded paddy test; assay type: in vivo; conditions: Flood, 250 g ai/ha, 0 to 100 scale where 0 is no effect and 100 is complete control
Method in brief: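 Plants were grown to the 2-leaf stage, then pots were flooded to 3 cm above the soil and compounds were applied directly into the paddy water. That depth was held throughout, and after 13 to 15 days in the greenhouse injury was rated visually against controls on a 0–100 scale (0 no effect, 100 complete control).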

[2] = test system: galium; assay: Test C preemergence; assay type: in vivo, Galium aparine
Method in brief: (§1)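 Preemergence: seeds sown in a loam soil–sand blend and sprayed with test chemical in a non-phytotoxic solvent mixture containing surfactant. Postemergence: plants at 2 to 18 cm (1- to 4-leaf stage) in peat-based medium, treated with the same formulation. Greenhouse 13 to 15 days, then visual rating 0 (no effect) to 100 (complete control).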

[3] = test system: morningglory; assay: Test C postemergence; assay type: in vivo, Ipomoea coccinea
Method in brief: as §1

[4] = test system: blackgrass; assay: Test C preemergence; assay type: in vivo, Alopecurus myosuroides
Method in brief: as §1

[5] = test system: wheat, winter; assay: Test C preemergence; assay type: in vivo, Triticum aestivum
From the text: (§2) Seeds of plant species selected from blackgrass (Alopecurus myosuroides), Italian ryegrass (Lolium multiflorum), wheat, winter (winter wheat, Triticum aestivum), galium (catchweed bedstraw, Galium aparine), corn (Zea mays), large (Lg) crabgrass (Digitaria sanguinalis), giant foxtail (Setaria faberii), johnsongrass (Sorghum halepense), lambsquarters (Chenopodium album), morningglory (Ipomoea coccinea), yellow nutsedge (Cyperus esculentus), pigweed (Amaranthus retroflexus), ragweed (common ragweed, Ambrosia elatior), soybean (Glycine max), barnyardgrass (Echinochloa crus-galli), oilseed rape (Brassica napus), waterhemp (common waterhemp, Amaranthus rudis), kochia (Kochia scoparia), wild oat (Avena fatua), surinam grass (Brachiaria decumbens), foxtail, green (green foxtail, Setaria viridis), goosegrass (Eleusine indica), bromegrass, downy (downy bromegrass, Bromus tectorum), nightshade (eastern black nightshade, Solanum ptycanthum), cocklebur (common cocklebur, Xanthium strumarium), cupgrass, woolly (woolly cupgrass, Eriochloa villosa), bermudagrass (Cynodon dactylon), sunflower, (common oilseed sunflower, Helianthus annuus), Russian thistle (Salsola kali), and velvetleaf (Abutilon theophrasti) were planted into a blend of loam soil and sand and treated preemergence with test chemicals formulated in a non-phytotoxic solvent mixture which included a surfactant.
(§3) At the same time, plants selected from these crop and weed species and also barley, winter (winter barley, Hordeum vulgare), windgrass (Apera spica-venti), chickweed (common chickweed, Stellaria media), deadnettle (henbit deadnettle, Lamium amplexicaule), and canarygrass (littleseed canarygrass, Phalaris minor) were planted in pots containing Redi-Earth® planting medium (Scotts Company, 14111 Scottslawn Road, Marysville, Ohio 43041) comprising spaghnum peat moss, vermiculite, wetting agent and starter nutrients and treated with postemergence applications of test chemicals formulated in the same manner. Plants ranged in height from 2 to 18 cm (1- to 4-leaf stage) for postemergence treatments. Treated plants and controls were maintained in a greenhouse for 13 to 15 days, after which time all species were compared to controls and visually evaluated. Plant response ratings, summarized in Table C, are based on a scale of 0 to 100 where 0 is no effect and 100 is complete control. A dash (-) response means no test result.

[6] = test system: Italian ryegrass; assay: Test C preemergence; assay type: in vivo, Lolium multiflorum
From the text: as §2, §3

[7] = test system: morningglory; assay: Test C preemergence; assay type: in vivo, Ipomoea coccinea
Method in brief: as §1

[8] = test system: large (Lg) crabgrass; assay: Test A preemergence; assay type: in vivo, Digitaria sanguinalis
Method in brief: (§4)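 Scoring: eye-based comparison with untreated controls, 0 for no effect through 100 for complete control, at about day 10. Treatments: directed soil spray preemergence; foliar spray postemergence on 2–10 cm plants at the one- to two-leaf stage. Medium: loam soil with sand.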

[9] = test system: barnyardgrass; assay: Test A postemergence; assay type: in vivo, Echinochloa crus-galli
Method in brief: as §4

[10] = test system: wheat; assay: Test A postemergence; assay type: in vivo, Triticum aestivum
Method in brief: as §4

[11] = 62 g ai/ha, preemergence, scale 0 (no effect) to 100 (complete control)
[12] = 125 g ai/ha, preemergence, scale 0 (no effect) to 100 (complete control)
[13] = 250 g ai/ha, preemergence, scale 0 (no effect) to 100 (complete control)
[14] = Preemergence, 31 g ai/ha, scale 0 to 100, 0 no effect, 100 complete control
[15] = 125 g ai/ha, 0 to 100 scale where 0 is no effect and 100 is complete control
[16] = 500 g ai/ha, 0 to 100 scale, 0 no effect, 100 complete control

## Clc1cnc(Oc2ccccc2-n2cc(Br)cn2)nc1 [Compound 7, 2-[2-(4-bromo-1H-pyrazol-1-yl)phenoxy]-5-chloropyrimidine]
[1]; Heteranthera limosa, read-out: Plant response rating, Ducksalad
  pest or weed control at 250 g/ha: 80%
[2]; Galium, pre-emergence, 62 g ai/ha, preemergence, scale 0 (no effect) to 100 (complete control), read-out: Galium plant response rating
  pest or weed control at 62 g/ha: 100%
[2]; Galium, pre-emergence, 125 g ai/ha, preemergence, scale 0 (no effect) to 100 (complete control), read-out: Galium plant response rating
  pest or weed control at 125 g/ha: 100%
[2]; Galium, pre-emergence, 250 g ai/ha, preemergence, scale 0 (no effect) to 100 (complete control), read-out: Galium plant response rating
  pest or weed control at 250 g/ha: 100%
[2]; Galium, pre-emergence, Preemergence, 31 g ai/ha, scale 0 to 100, 0 no effect, 100 complete control, read-out: Plant response rating, Galium
  pest or weed control at 31 g/ha: 85%
[3]; Ipomoea, post-emergence, 125 g ai/ha, postemergence, read-out: Plant response rating (0 to 100), Morningglory
  pest or weed control at 125 g/ha: 95%
[3]; Ipomoea, post-emergence, Postemergence, 31 g ai/ha, scale 0 to 100 (0 no effect, 100 complete control), 13 to 15 days, read-out: Plant response rating, Morningglory
  pest or weed control at 31 g/ha: 75%
[3]; Ipomoea, post-emergence, Postemergence, 62 g ai/ha, scale 0 to 100 (0 no effect, 100 complete control), read-out: Plant response rating, Morningglory
  pest or weed control at 62 g/ha: 80%
[4]; Alopecurus myosuroides, pre-emergence, 62 g ai/ha, preemergence, scale 0 (no effect) to 100 (complete control), read-out: Blackgrass plant response rating
  pest or weed control at 62 g/ha: 10%
[4]; Alopecurus myosuroides, pre-emergence, 125 g ai/ha, preemergence, scale 0 (no effect) to 100 (complete control), read-out: Blackgrass plant response rating
  pest or weed control at 125 g/ha: 50%
[4]; Alopecurus myosuroides, pre-emergence, 250 g ai/ha, preemergence, scale 0 (no effect) to 100 (complete control), read-out: Blackgrass plant response rating
  pest or weed control at 250 g/ha: 85%
[4]; Alopecurus myosuroides, pre-emergence, Preemergence, 31 g ai/ha, scale 0 to 100, 0 no effect, 100 complete control, read-out: Plant response rating, Blackgrass
  pest or weed control at 31 g/ha: 5%
[5]; Triticum aestivum, pre-emergence, 62 g ai/ha, preemergence, scale 0 (no effect) to 100 (complete control), read-out: Wheat plant response rating
  plant injury at 62 g/ha: 5%
[5]; Triticum aestivum, pre-emergence, 125 g ai/ha, preemergence, scale 0 (no effect) to 100 (complete control), read-out: Wheat plant response rating
  plant injury at 125 g/ha: 10%
[5]; Triticum aestivum, pre-emergence, 250 g ai/ha, preemergence, scale 0 (no effect) to 100 (complete control), read-out: Wheat plant response rating
  plant injury at 250 g/ha: 40%
[5]; Triticum aestivum, pre-emergence, Preemergence, 31 g ai/ha, scale 0 to 100, 0 no effect, 100 complete control, read-out: Plant response rating, Wheat
  plant injury at 31 g/ha: 0%
[6]; Lolium multiflorum, pre-emergence, 62 g ai/ha, preemergence, scale 0 (no effect) to 100 (complete control), read-out: Ryegrass, Italian plant response rating
  pest or weed control at 62 g/ha: 0%
[6]; Lolium multiflorum, pre-emergence, 125 g ai/ha, preemergence, scale 0 (no effect) to 100 (complete control), read-out: Ryegrass, Italian plant response rating
  pest or weed control at 125 g/ha: 5%
[6]; Lolium multiflorum, pre-emergence, 250 g ai/ha, preemergence, scale 0 (no effect) to 100 (complete control), read-out: Ryegrass, Italian plant response rating
  pest or weed control at 250 g/ha: 40%
[6]; Lolium multiflorum, pre-emergence, Preemergence, 31 g ai/ha, scale 0 to 100, 0 no effect, 100 complete control, read-out: Plant response rating, Ryegrass, Italian
  pest or weed control at 31 g/ha: 0%
[7]; Ipomoea, pre-emergence, 62 g ai/ha, preemergence, scale 0 (no effect) to 100 (complete control), read-out: Morningglory plant response rating
  pest or weed control at 62 g/ha: 0%
[7]; Ipomoea, pre-emergence, 125 g ai/ha, preemergence, scale 0 (no effect) to 100 (complete control), read-out: Morningglory plant response rating
  pest or weed control at 125 g/ha: 10%
[7]; Ipomoea, pre-emergence, 250 g ai/ha, preemergence, scale 0 (no effect) to 100 (complete control), read-out: Morningglory plant response rating
  pest or weed control at 250 g/ha: 40%
[7]; Ipomoea, pre-emergence, Preemergence, 31 g ai/ha, scale 0 to 100, 0 no effect, 100 complete control, read-out: Plant response rating, Morningglory
  pest or weed control at 31 g/ha: 0%
[8]; Digitaria sanguinalis, pre-emergence, 240 h, 125 g ai/ha, 0 to 100 scale where 0 is no effect and 100 is complete control, read-out: Crabgrass, Large plant response rating
  pest or weed control at 125 g/ha: 100%
[8]; Digitaria sanguinalis, pre-emergence, 240 h, 500 g ai/ha, 0 to 100 scale, 0 no effect, 100 complete control, approx. 10 days, read-out: Crabgrass, Large plant response rating
  pest or weed control at 500 g/ha: 100%
[9]; Echinochloa crus-galli, post-emergence, 240 h, 125 g ai/ha, 0 to 100 scale where 0 is no effect and 100 is complete control, read-out: Plant response rating, Barnyardgrass
  pest or weed control at 125 g/ha: 90%
[9]; Echinochloa crus-galli, post-emergence, 240 h, 500 g ai/ha, 0 to 100 scale, 0 no effect, 100 complete control, read-out: Plant response rating Barnyardgrass
  pest or weed control at 500 g/ha: 100%
[10]; Triticum aestivum, post-emergence, 240 h, 125 g ai/ha, 0 to 100 scale where 0 is no effect and 100 is complete control, read-out: Plant response rating, Wheat
  plant injury at 125 g/ha: 30%
[10]; Triticum aestivum, post-emergence, 240 h, 500 g ai/ha, 0 to 100 scale, 0 no effect, 100 complete control, read-out: Plant response rating Wheat
  plant injury at 500 g/ha: 50%

## FC(F)(F)c1cnn(-c2ccccc2Oc2ncc(Cl)cn2)c1 [Compound 16]
[1]
  Plant response rating, Ducksalad: 90
[2]; [11]
  Galium plant response rating: 100
[2]; [12]
  Galium plant response rating: 100
[2]; [13]
  Galium plant response rating: 100
[2]; [14]
  Plant response rating, Galium: 95
[3]; 125 g ai/ha, postemergence
  Plant response rating (0 to 100), Morningglory: 80
[3]; 250 g ai/ha, postemergence
  Plant response rating (0 to 100), Morningglory: 85
[3]; Postemergence, 31 g ai/ha, scale 0 to 100 (0 no effect, 100 complete control), 13 to 15 days
  Plant response rating, Morningglory: 65
[3]; Postemergence, 62 g ai/ha, scale 0 to 100 (0 no effect, 100 complete control)
  Plant response rating, Morningglory: 80
[4]; [11]
  Blackgrass plant response rating: 90
[4]; [12]
  Blackgrass plant response rating: 90
[4]; [13]
  Blackgrass plant response rating: 90
[4]; [14]
  Plant response rating, Blackgrass: 85
[5]; [11]
  Wheat plant response rating: 0
[5]; [12]
  Wheat plant response rating: 35
[5]; [13]
  Wheat plant response rating: 60
[5]; [14]
  Plant response rating, Wheat: 0
[6]; [11]
  Ryegrass, Italian plant response rating: 30
[6]; [12]
  Ryegrass, Italian plant response rating: 80
[6]; [13]
  Ryegrass, Italian plant response rating: 90
[6]; [14]
  Plant response rating, Ryegrass, Italian: 0
[7]; [11]
  Morningglory plant response rating: 75
[7]; [12]
  Morningglory plant response rating: 90
[7]; [13]
  Morningglory plant response rating: 98
[7]; [14]
  Plant response rating, Morningglory: 10
[8]; [15]
  Crabgrass, Large plant response rating: 100
[8]; 500 g ai/ha, 0 to 100 scale, 0 no effect, 100 complete control, approx. 10 days
  Crabgrass, Large plant response rating: 100
[9]; [15]
  Plant response rating, Barnyardgrass: 60
[9]; [16]
  Plant response rating, Barnyardgrass: 100
[10]; [15]
  Plant response rating, Wheat: 70
[10]; [16]
  Plant response rating, Wheat: 80
